Assays:
Aβtotal = experiment: Screening for γ-secretase-modulating activity in SKNBE2 cells carrying APP 695 wild type: Aβtotal in cell supernatant (Alphalisa); assay type: cell-based; settings: Homo sapiens, overnight incubation
Experimental: (§1) Pharmacology A) Screening of the Compounds of the Invention for γ-Secretase-Modulating Activity
(§2) Screening was carried out using SKNBE2 cells carrying the APP 695—wild type, grown in Dulbecco's Modified Eagle's Medium/Nutrient mixture F-12 (DMEM/NUT-mix F-12) (HAM) provided by Invitrogen (cat no. 10371-029) containing 5% Serum/Fe supplemented with 1% non-essential amino acids, 1-glutamine 2 mM, Hepes 15 mM, penicillin 50 U/ml (units/ml) en streptomycin 50 μg/ml. Cells were grown to near confluency.
(§3) The screening was performed using a modification of the assay as described in Citron et al (1997) Nature Medicine 3: 67. Briefly, cells were plated in a 384-well plate at 10^4 cells/well in Ultraculture (Lonza, BE12-725F) supplemented with 1% glutamine (Invitrogen, 25030-024), 1% non-essential amino acid (NEAA), penicillin 50 U/ml en streptomycin 50 μg/ml in the presence of test compound at different test concentrations. The cell/compound mixture was incubated overnight at 37° C., 5% CO2. The next day the media were assayed by two sandwich immuno-assays, for Aβ42 and Aβtotal.
(§4) Aβtotal and Aβ42 concentrations were quantified in the cell supernatant using the Aphalisa technology (Perkin Elmer). Alphalisa is a sandwich assay using biotinylated antibody attached to streptavidin coated donorbeads and antibody conjugated to acceptor beads. In the presence of antigen, the beads come into close proximity. The excitation of the donor beads provokes the release of singlet oxygen molecules that trigger a cascade of energy transfer in the acceptor beads, resulting in light emission. To quantify the amount of Aβ42 in the cell supernatant, monoclonal antibody specific to the C-terminus of Aβ42 (JRF/cAβ42/26) was coupled to the receptor beads and biotinylated antibody specific to the N-terminus of Aβ (JRF/AβN/25) was used to react with the donor beads. T quantify the amount of Aβtotal in the cell supernatant, monoclonal antibody specific to the N-terminus of Aβ (JRF/AβN/25) was coupled to the receptor beads and biotinylated antibody specific to the mid region of Aβ (biotinylated 4G8) was used to react with the donor beads.
(§5) To obtain the values reported in Table 3, the data are calculated as percentage of the maximum amount of amyloid Beta 42 measured in the absence of the test compound. The sigmoidal dose response curves were analyzed using non-linear regression analysis with percentage of the control plotted against the log concentration of the compound. A 4-parameter equation was used to determine the IC50.

Aβ42 = experiment: Screening for γ-secretase-modulating activity in SKNBE2 cells carrying APP 695 wild type: Aβ42 in cell supernatant (Alphalisa); assay type: cell-based; settings: Homo sapiens, SKNBE2, SKNBE2 cells carrying APP 695 wild type, overnight incubation
Experimental: as §1, §2, §3, §4, §5

Compound	IC50 (Aβtotal)	melting point	IC50 (Aβ42)
COc1cc(Nc2nc3c(-c4cccc(C(F)(F)F)c4)cccn3n2)ccc1-n1cnc(C)c1 [Compound 20, N-[3-methoxy-4-(4-methyl-1H-imidazol-1-yl)phenyl]-8-[3-(trifluoromethyl)phenyl]-[1,2,4]triazolo[1,5-a]pyridin-2-amine]	5890 nM	175 °C	5 nM
COc1cc(Nc2nc3c(-c4cccc(C(F)(F)F)c4)nccn3n2)ccc1-n1cnc(C)c1 [Compound 22, N-[3-methoxy-4-(4-methyl-1H-imidazol-1-yl)phenyl]-8-[3-(trifluoromethyl)phenyl]-[1,2,4]triazolo[1,5-a]pyrazin-2-amine]	7590 nM	199 °C	40 nM
COc1cc(Nc2nc3c(-c4ccccc4C(F)(F)F)cccn3n2)ccc1-c1ocnc1C [Compound 23, N-[3-methoxy-4-(4-methyl-5-oxazolyl)phenyl]-8-[2-(trifluoromethyl)phenyl]-[1,2,4]triazolo[1,5-a]pyridin-2-amine]	> 10000 nM	220.3 °C	13 nM
Cc1cc(-c2ccc(Nc3nc4c(-c5ccccc5Cl)cccn4n3)cc2F)ccn1 [Compound 25, 8-(2-chlorophenyl)-N-[3-fluoro-4-(2-methyl-4-pyridinyl)phenyl]-[1,2,4]triazolo[1,5-a]pyridin-2-amine]	> 10000 nM	251 °C	15 nM
Cc1cc(-c2ccc(Nc3nc4c(-c5ccccc5Cl)cccn4n3)cc2)cc(C)n1 [Compound 26, 8-(2-chlorophenyl)-N-[4-(2,6-dimethyl-4-pyridinyl)phenyl]-[1,2,4]triazolo[1,5-a]pyridin-2-amine]	> 10000 nM	228.1 °C	43 nM
COc1cc(Nc2nc3n(n2)CCCC3c2cccc(C(F)(F)F)c2)ccc1-n1cnc(C)c1 (stereo not drawn) [Compound 34, 5,6,7,8-tetrahydro-N-[3-methoxy-4-(4-methyl-1H-imidazol-1-yl)phenyl]-8-[3-(trifluoromethyl)phenyl]-[1,2,4]triazolo[1,5-a]pyridin-2-amine]	7590 nM	224.9 °C	10 nM
COc1cc(Nc2nc3n(n2)CCOC3c2ccccc2C(F)(F)F)ccc1-n1cnc(C)c1 (stereo not drawn) [Compound 47, 5,6-dihydro-N-[3-methoxy-4-(4-methyl-1H-imidazol-1-yl)phenyl]-8-[2-(trifluoromethyl)phenyl]-8H-[1,2,4]triazolo[5,1-c][1,4]oxazin-2-amine]	> 10000 nM	202.9 °C	55 nM
COc1cc(Nc2nc3n(n2)CCCC3c2cc(C(F)(F)F)ccc2F)ccc1-n1cnc(C)c1 (stereo not drawn) [Compound 48, 8-[2-fluoro-5-(trifluoromethyl)phenyl]-5,6,7,8-tetrahydro-N-[3-methoxy-4-(4-methyl-1H-imidazol-1-yl)phenyl]-[1,2,4]triazolo[1,5-a]pyridin-2-amine]	5750 nM	204.4 °C	30 nM
COc1cc(Nc2nc3n(n2)CCCC3c2ccc(C(F)(F)F)cc2)ccc1-n1cnc(C)c1 (stereo not drawn) [Compound 50, 5,6,7,8-tetrahydro-N-[3-methoxy-4-(4-methyl-1H-imidazol-1-yl)phenyl]-8-[4-(trifluoromethyl)phenyl][1,2,4]triazolo[1,5-a]pyridin-2-amine]	8130 nM	229.7 °C	19 nM
FC(F)(F)c1ccccc1C1CCCn2nc(Nc3ccc(-c4ccncc4)cc3)nc21 (stereo not drawn) [Compound 75, 5,6,7,8-tetrahydro-N-[4-(4-pyridinyl)phenyl]-8-[2-(trifluoromethyl)phenyl]-[1,2,4]triazolo[1,5-a]pyridin-2-amine]	> 10000 nM	240.4 °C	257 nM
Cc1cc(-c2ccc(Nc3nc4n(n3)CCOC4c3ccccc3Cl)cc2)ccn1 (stereo not drawn) [Compound 76, 8-(2-chlorophenyl)-5,6-dihydro-N-[4-(2-methyl-4-pyridinyl)phenyl]-8H-[1,2,4]triazolo[5,1-c][1,4]oxazin-2-amine]	> 10000 nM	216.1 °C	46 nM

Next, values leading:

IC50 (Aβtotal)	melting point	IC50 (Aβ42)	Compound
> 10000 nM	200.6 °C	49 nM	COc1cc(Nc2nc3n(n2)CCCC3c2cccc(F)c2)ccc1-n1cnc(C)c1 (stereo not drawn) [Compound 30, 8-(3-fluorophenyl)-5,6,7,8-tetrahydro-N-[3-methoxy-4-(4-methyl-1H-imidazol-1-yl)phenyl]-[1,2,4]triazolo[1,5-a]pyridin-2-amine]
9330 nM	249 °C	12 nM	COc1cc(Nc2nc3n(n2)CCCC3c2ccc(F)cc2C)ccc1-n1cnc(C)c1 (stereo not drawn) [Compound 32, 8-(4-fluoro-2-methylphenyl)-5,6,7,8-tetrahydro-N-[3-methoxy-4-(4-methyl-1H-imidazol-1-yl)phenyl]-[1,2,4]triazolo[1,5-a]pyridin-2-amine]
> 10000 nM	258.5 °C	29 nM	COc1cc(Nc2nc3n(n2)CCCC3c2ccccc2C(F)(F)F)ccc1-c1ocnc1C (stereo not drawn) [Compound 38, 5,6,7,8-tetrahydro-N-[3-methoxy-4-(4-methyl-5-oxazolyl)phenyl]-8-[2-(trifluoromethyl)phenyl]-[1,2,4]triazolo[1,5-a]pyridin-2-amine]
> 10000 nM	170.1 °C	39 nM	COc1cc(Nc2nc3n(n2)CCCC3c2cccc(F)c2)ccc1-c1ccnc(C)c1 (stereo not drawn) [Compound 44, 8-(3-fluorophenyl)-5,6,7,8-tetrahydro-N-[3-methoxy-4-(2-methyl-4-pyridinyl)phenyl]-[1,2,4]triazolo[1,5-a]pyridin-2-amine]
> 10000 nM	188.3 °C	29 nM	COc1cc(Nc2nc3n(n2)CCCC3c2ccccc2F)ccc1-n1cnc(C)c1 (stereo not drawn) [Compound 49, 8-(2-fluorophenyl)-5,6,7,8-tetrahydro-N-[3-methoxy-4-(4-methyl-1H-imidazol-1-yl)phenyl]-[1,2,4]triazolo[1,5-a]pyridin-2-amine]
> 10000 nM	167.9 °C	40 nM	COc1cc(Nc2nc3n(n2)CCCC3c2ccccc2Cl)ccc1-c1ccnc(C)c1 (stereo not drawn) [Compound 77]
> 10000 nM	201.9 °C	21 nM	COc1cc(Nc2nc3n(n2)CCOC3c2ccc(F)cc2C)ccc1-c1ccnc(C)c1 (stereo not drawn) [Compound 92, 8-(4-fluoro-2-methylphenyl)-5,6-dihydro-N-[3-methoxy-4-(2-methyl-4-pyridinyl)phenyl]-8H-[1,2,4]triazolo[5,1-c][1,4]oxazin-2-amine]
> 10000 nM	214.9 °C	50 nM	COc1cc(Nc2nc3n(n2)CCCC3c2ccccc2F)ccc1-c1ccnc(C)c1 (stereo not drawn) [Compound 99, 8-(2-fluorophenyl)-5,6,7,8-tetrahydro-N-[3-methoxy-4-(2-methyl-4-pyridinyl)phenyl]-[1,2,4]triazolo[1,5-a]pyridin-2-amine]
> 10000 nM	217.2 °C	36 nM	COc1cc(Nc2nc3n(n2)CCOC3c2ccc(F)cc2F)ccc1-c1ccnc(C)c1 (stereo not drawn) [Compound 100, 8-(2,4-difluorophenyl)-5,6-dihydro-N-[3-methoxy-4-(2-methyl-4-pyridinyl)phenyl]-8H-[1,2,4]triazolo[5,1-c][1,4]oxazin-2-amine]
> 10000 nM	148.4 °C	29 nM	COc1cccc(C2CCCn3nc(Nc4ccc(-c5ccnc(C)c5)c(F)c4)nc32)c1 (stereo not drawn) [Compound 102, N-[3-fluoro-4-(2-methyl-4-pyridinyl)phenyl]-5,6,7,8-tetrahydro-8-(3-methoxyphenyl)-[1,2,4]triazolo[1,5-a]pyridin-2-amine]
> 10000 nM	221.6 °C	59 nM	COc1cccc(C2CCCn3nc(Nc4ccc(-c5ccnc(C)c5)cc4)nc32)c1 (stereo not drawn) [Compound 103, 5,6,7,8-tetrahydro-8-(3-methoxyphenyl)-N-[4-(2-methyl-4-pyridinyl)phenyl]-[1,2,4]triazolo[1,5-a]pyridin-2-amine]
> 15000 nM	150.6 °C	40 nM	COc1cc(C2CCCn3nc(Nc4ccc(-c5ccnc(C)c5)cc4)nc32)ccc1F (stereo not drawn) [Compound 106, 8-(4-fluoro-3-methoxyphenyl)-5,6,7,8-tetrahydro-N-[4-(2-methyl-4-pyridinyl)phenyl]-[1,2,4]triazolo[1,5-a]pyridin-2-amine]

Reference: patent US9145399B2, “Substituted bicyclic triazole derivatives as gamma secretase modulators” (Janssen Pharmaceuticals, Inc., priority 2010, dated 2015)
